Series [1] in a line: Gelation studies with Apn-based prodrug gelators in water and organic solvents. It counts as physicochemical. The arrangement: key to Gelation ability: G = gel; P = precipitate; S = soluble; I = insoluble. The source says: Gelation Studies with Prodrug-Based Gelators. Gelation abilities of Apn based amphiphilic prodrugs have been investigated thoroughly in a wide range of solvents. For detailed gelation results, see Table 1, below). Typically, the required amount of gelator was placed in a glass vial and with an appropriate solvent. […] The resulting solution was slowly cooled to room temperature and gelation was visually observed. […] Despite of prolonged heating Apn-11-CH3 was not soluble in water. […] In addition, Apn-7-COOH is soluble in basic solutions (pH is more than 8).
All gels were opaque in nature and stable for several weeks.
Preparation of Gels. Typically, gelator (0.1-5 mg) and required solvent (0.1-1 mL) were placed into a 2 mL scintillation vial, which was then sealed with a screw cap. The vial was heated with shaking until the solid was completely dissolved.

Series [2] deals with mesenchymal stem cells (MSCs). In words: MSC viability, trypan blue exclusion. It is filed as cell-based, human. As for the experimental part:
Cytocompatibility. The cytocompatibility of prodrugs generated from small modification of known drugs was investigated. […] To test the cyto compatibility of prodrug-based amphiphiles and bolaamphiphiles, and their effect on cell characteristics such as viability, proliferation, adhesion and cell phenotype, a series of experiments was performed with mesenchymal stem cells (MSCs). To gain more insight into the effect of modification, unmodified drug Apn was used as a control. The viability of control cells and cells treated with Apn, Apn-7-COOH and Apn-8-Apn was examined with trypan blue assay. Use of Mesenchymal stem cells is appropriate given that these systems may be used for localized release likely into connective tissues.
Mesenchymal Stem Cell Culture. Primary human mesenchymal stem cells were maintained in expansion media that consisted of 15% Fetal Bovine Serum (selected for its ability to expand MSCs), 1% (v/v) L-Glutamine, 1% (v/v) Penn-Strep, and α-MEM. All experiments were performed using MSCs at passage number 4-6.
Viability, Adhesion and Proliferation Characteristics. The viability of the cells was examined using trypan blue exclusion. […] The media was then aspirated and the cells were detached with 200 μL of cell dissociated solution (similar quantities of floating cells were observed between the groups, typically 5-10 per well). 300 μL of media was added and the total 500 μL of the cell dispersion was collected in an eppendorf tubes. From this 10 μL of cell dispersion was diluted to 1:1 with 4% trypan blue solution and cells were counted in a hemocytometer to determine the number viable (non-blue) and nonviable (blue) cells. A control for this experiment included cells treated with only phosphate buffer saline (PBS) without an amphiphile. Cell adhesion was quantified by measuring the number of adherent cells on tissue culture surfaces in 96 well plates after incubating with amphiphiles for 12 hours. For proliferation studies, 5000 cells were added to each well of a 96 well plate in 200 μL of MSC cell expansion media, and appropriate amphiphiles were then added and incubated at 37° C. and 5% CO2. Proliferation was quantified by manually tabulating the number of cells within the flask at multiple time points (1, 2, 3, 4, 6 and 8 days) with light microscopy at 10×.

Series [3] deals with mesenchymal stem cells (MSCs). Put plainly: MSC osteogenic differentiation, alkaline phosphatase staining. It counts as cell-based, human. The settings on record: 250 μM, 23 days. As for the experimental part: Unlike typical fibroblast cell lines used for toxicity screening, cultured mesenchymal stem cells are highly sensitive to the presence of soluble factors and can often loose their capacity for multi-lineage differentiation or differentiate into non-desired lineages depending on the culture conditions. To examine the impact of the acetaminophen amphiphilic prodrugs on multi-lineage differentiation of MSCs, cells were treated with adipogenic and osteogenic induction media in presence of amphiphiles followed by respective colorimetric histological staining.
Osteogenic Differentiation. MSCs were seeded in the wells of 24 well plates, and were culture in MSC expansion media until they reach 90% confluence (note: in control samples there was no amphiphile present, whereas in experimental samples 250 μM of Apn-based amphiphile was present). Osteogenic differentiation was induced by culturing the cells for 23 days in osteogenic induction media (from Lonza—MSCs Osteogenic Single Quote kit) containing dexamethasone, β-glycerophosphate, L-ascorbic acid-2-phosphate, and α-MEM. The media in both groups was changed every 3 days (note: each time while changing the media, 250 μM of Apn-based amphiphiles were added to maintain constant concentration). Osteogenesis was evaluated by cell membrane associated alkaline phosphatase activity. Alkaline phosphatase activity was examined after 23 days by carefully aspirating the media and washing the cells with PBS. The cells were fixed with 3.7% formaldehyde solution for 15 min at room temperature followed by rinsing with distilled water. 0.06% Red Violet LB salt solution in Tris HCl was added with distilled water containing DMF and Naphthol AS MX-PO4. The plates were incubated for 45 minutes at room temperature and then the wells were rinsed 3 times with distilled water and imaged under with inverted phase contrast microscope.

Entries after “also recorded” stand apart in the source; their conditions may differ.

With `CC(=O)Nc1ccc(OC(=O)CCCCCCC(=O)O)cc1` [Apn-7-COOH], the “solubility in basic solutions” value in series [1] (pH is more than 8) is recorded as “soluble”. Also, the Gelation ability entry in series [1] (solvent chloroform) is recorded as “S”; in series [1] (solvent ethanol), “S”; in series [1] (solvent ethyl acetate) it was “I”; in series [1] (solvent isopropanol), “I”; in series [1] (solvent methanol), “S”; in series [1] (solvent t-butanol) it was “I”. In addition, the Gelation ability result in series [1] (solvent water) is “G”. In series [1] (solvent water), the minimum gelation concentration amounted to 0.4 wt/v %. Moreover, the “gelation in water (in words)” value in series [1] (water / aqueous solutions) is given as “forms excellent gels”. Further, the viable cells in series [2] (250 μM, 48 hours incubation) turned out to be 87%. In series [2] (up to 500 μM, 48 hours), the “viability rates over concentration range” value was “not significantly affected”. In series [3], the “osteogenic differentiation, alkaline phosphatase (ALP) staining” value is reported as “robust capacity; also recorded: equally stained for ALP”.

Source of the values: patent publication US11458153B2, “Drug delivery composition comprising a self-assembled gelator” (The Brigham and Women's Hospital, Inc., priority 2008, dated 2022).
